{"source": "patent US11365215B2", "about": "“Method for preventing, improving, or treating inflammatory bowel disease” (Research & Business Foundation Sungkyunkwan University, priority 2015, dated 2022)", "key": {"[1]": {"system": "BRE (BMP6 signaling)", "assay": "BRE-Luc reporter assay in Raw 264.7 cells treated with BMP6", "format": "cell-based", "settings": "100 ng/mL BMP6 two hours", "experimental": "Specifically, 5×NF-κB-Luc reporter plasmid, SBE-Luc reporter plasmid, and BRE-Luc reporter plasmid were individually transfected into Raw 264.7 macrophage cells. After 24 hours, the cells transfected with the NF-κB-Luc reporter plasmid were treated with 100 ng/mL of LPS, the cells transfected with the SBE-Luc reporter plasmid were treated with 5 ng/mL of TFG-β1, and the cells transfected with the BRE-Luc reporter plasmid were treated with 100 ng/mL of BMP6 for two hours."}, "[2]": {"molecular_target": "T1, inflammatory signaling pathway complex mediated by MyD88 and RIP1 (Mus musculus, UniProt P22366+Q60855)", "T1 construct": "endogenous in cells; host or cells: bone-marrow-derived macrophage (BMDM) cells", "T1 sequence (P22366 whole entry)": "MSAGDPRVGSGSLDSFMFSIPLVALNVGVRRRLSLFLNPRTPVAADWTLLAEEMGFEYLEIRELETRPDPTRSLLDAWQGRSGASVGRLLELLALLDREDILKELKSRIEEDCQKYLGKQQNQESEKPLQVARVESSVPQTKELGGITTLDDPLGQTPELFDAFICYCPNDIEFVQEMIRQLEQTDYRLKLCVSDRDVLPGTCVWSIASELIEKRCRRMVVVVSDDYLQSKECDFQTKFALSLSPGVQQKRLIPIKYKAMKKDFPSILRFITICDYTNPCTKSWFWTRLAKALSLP", "T1 sequence (Q60855 whole entry)": "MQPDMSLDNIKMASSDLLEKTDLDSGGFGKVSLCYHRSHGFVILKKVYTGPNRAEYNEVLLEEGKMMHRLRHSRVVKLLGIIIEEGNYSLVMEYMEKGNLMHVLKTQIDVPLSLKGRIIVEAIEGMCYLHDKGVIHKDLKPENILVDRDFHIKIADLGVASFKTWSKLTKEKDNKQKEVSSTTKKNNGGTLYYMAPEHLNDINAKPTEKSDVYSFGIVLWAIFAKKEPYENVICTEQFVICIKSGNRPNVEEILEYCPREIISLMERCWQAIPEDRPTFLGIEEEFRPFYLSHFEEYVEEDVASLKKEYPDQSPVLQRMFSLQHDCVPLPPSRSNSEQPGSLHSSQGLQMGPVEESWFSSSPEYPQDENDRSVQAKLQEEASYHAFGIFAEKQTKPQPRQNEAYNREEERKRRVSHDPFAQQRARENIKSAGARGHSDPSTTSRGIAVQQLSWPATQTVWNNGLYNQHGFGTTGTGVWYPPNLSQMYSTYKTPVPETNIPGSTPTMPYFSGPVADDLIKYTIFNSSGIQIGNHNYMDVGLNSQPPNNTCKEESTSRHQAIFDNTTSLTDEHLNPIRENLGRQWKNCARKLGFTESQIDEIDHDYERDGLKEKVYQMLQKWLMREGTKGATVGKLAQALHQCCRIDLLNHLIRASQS", "assay": "Immunoprecipitation/immunoblot of inflammatory signaling pathway complex in LPS-treated BMDM cells", "format": "cell-based", "settings": "100 pM, 1 nM, 100 nM, then 100 ng/mL LPS", "experimental": "Bone-marrow-derived macrophage (BMDM) cells were individually pretreated with compound 1.1 (SEQ ID NO: 2), reference compound 1 (SEQ ID NO: 16), and smaducin-6 at various concentrations of 100 pM, 1 nM, and 100 nM, and then further treated with 100 ng/mL of LPS."}, "[3]": {"system": "DSS-induced chronic colitis", "assay": "Disease activity index in DSS-induced chronic colitis model", "format": "in vivo, Mice (C57BL/6)", "settings": "mice", "experimental": "Mice (7-8 weeks, female, C57BL/6) were fed 2% DSS polymer (MW of about 50000 Da) in drinking water for 5-7 days, and colitis was induced every 2 to 15 days. Compound 1.1 (SEQ ID NO: 2) was then administered orally to the mice, which had induced chronic colitis by DSS, in an amount of 50 mg/kg, 100 mg/kg, 200 mg/kg and 400 mg/kg, respectively, from the third day after feeding DDS, daily, for 11 days. Body weights, diarrhea and hemafecia of the mice were checked daily and the disease activity indexes were measured (FIG. 10)."}, "[4]": {"assay": "Plasma concentration / pharmacokinetics after intravenous and oral administration", "format": "in vivo, Male SD rat", "experimental": "Compound 1.1 (SEQ ID NO: 2) was administered to a rat intravenously (I.V., 5 mg/kg) or orally (50 mg/kg), and 24 hours after administration, the concentration of compound 1.1 (SEQ ID NO: 2) in plasma was measured (FIG. 18 and FIG. 19)."}, "[5]": {"system": "MAPK signaling pathway proteins (ERK1/2, JNK, p38)", "assay": "Western blot of MAPK signaling pathway protein phosphorylation in LPS-treated RAW 246.7 cells", "format": "cell-based", "settings": "100 nM for 30 minutes", "experimental": "RAW 246.7 macrophage cells were pretreated with compound 1.1 (SEQ ID NO: 2), compound 1.2 and reference compound 1 (SEQ ID NO: 16) at a concentration of 100 nM for 30 minutes and then further treated with LPS for 0 hour, 0.5 hour, 1 hour and 2 hours. […] Changes of the concentration upon phosphorylation of each protein were measured by immunoblotting using anti-phosphorylation antibodies.\nSpecifically, RAW 246.7 macrophage cells were pretreated with DMSO, compound 1.1 (SEQ ID NO: 2) (100 nM), IRAK1/4 inhibitor (25 μM), and smaducin-6 (100 nM) for 30 minutes, and then further treated with LPS (100 ng/ml) for two hours."}, "[6]": {"system": "VEGF", "assay": "qRT-PCR of VEGF in high-glucose HRMEC cells", "format": "cell-based", "settings": "30 mM glucose 48 hours, 10 nM and 50 nM", "experimental": "In addition, HRMEC cells were treated with 5.5 mM of glucose for reference group. For experiment group, the HRMEC cells were treated with 30 mM of glucose for 48 hours to induce high blood glucose condition, and simultaneously treated with DMSO, compound 1.1 (SEQ ID NO: 2) (10 nM), and compound 1.1 (SEQ ID NO: 2) (50 nM). Changes in expression of Nox-4, VEGF, VEGFR1, VEGFR2, Ang1, Ang2, Tie-2, EPO, and EPOR proteins were quantitatively measured by qRT-PCR (quantitative RT-PCR). Expression of VEGF precursor as stimulating factor of new blood vessel was reduced by treatment with compound 1.1 (SEQ ID NO: 2) (FIG. 25C)."}, "[7]": {"system": "STZ-induced diabetic retinopathy", "assay": "Active oxygen in retina of STZ-induced diabetic retinopathy model", "format": "in vivo", "settings": "mice; 0.2 μg into one eye, three times; vs non-treated DR sample", "experimental": "Streptozotocin (STZ) was administered at dose of 50 mg/kg to mice daily for 5 days, and a mouse model having induced diabetic retinopathy was obtained. The experimental group of the mouse model was injected with compound 1.1 (SEQ ID NO: 2), in an amount of 0.2 μg into one eye of the mouse, from the 20th day to 24th days from the administration, three times with two days of interval. After 50 days of administration, a DR sample that was not treated with compound 1.1 (SEQ ID NO: 2) and a DR sample treated with compound 1.1 (SEQ ID NO: 2) were collected.\nThe collected retina tissues from each mouse group as described above were stained with 5 μM of dihydroethidium and active oxygen rates from each group were measured (FIG. 27B). […] Accordingly, compound 1.1 (SEQ ID NO: 2) of the present invention is effectively used for preventing, alleviating or treating ophthalmic indications such as diabetic retinopathy from the biological experiments using mice."}, "[8]": {"settings": "plasma, iv, Male SD rat, single dose 5 mg/kg (i.v.)"}}, "note": "Peptide text beside a SMILES is read from it."}
{"smiles": "CCCCCCCCCCCCCCCC(=O)N1CCC[C@H]1C(=O)N1CCC[C@H]1C(=O)NCC(=O)N[C@@H](Cc1ccc(O)cc1)C(=O)O", "note": "[compound 1.1, (S)-3-(4-hydroxyphenyl)-2-(2-((S)-1-((S)-1-palmitoylpyrrolidine-2-carbonyl)pyrrolidine-2-carboxamido)acetamido)propanoic acid] (HELM PEPTIDE1{[CCCCCCCCCCCCCCCC(=O)[*:2]].P.P.G.Y}$$$$V2.0)", "values": [{"measurement": "activation of BRE induced by BMP6 treatment", "setting": "[1]", "value": "not inhibited"}, {"measurement": "formation of inflammatory signaling pathway complex mediated by MyD88 and RIP1", "setting": "[2]", "value": "further disrupted in an increasing dose dependent manner"}, {"measurement": "disease activity (disease activity index score)", "setting": "[3]; oral 50, 100, 200, 400 mg/kg daily for 11 days", "value": "decreased as the dose increased"}, {"measurement": "dose at which the decrease in disease activity was saturated", "setting": "[3]; oral daily for 11 days", "value": 200, "unit": "mg/kg"}, {"measurement": "AUC(0-t)", "setting": "[4]; [8]", "value": 2140, "unit": "ng·h/mL"}, {"measurement": "Cmax", "setting": "[4]; [8]", "value": 6020, "unit": "ng/mL"}, {"measurement": "Tmax", "setting": "[4]; [8]", "value": 4.8, "unit": "min"}, {"measurement": "clearance", "setting": "[4]; [8]", "value": 45, "unit": "mL/min/kg"}, {"measurement": "Vd", "setting": "[4]; plasma, iv, Male SD rat, single dose 5 mg/kg (i.v.), read-out: Vss", "value": "5.4 ± 1", "unit": "L/kg"}, {"measurement": "Tmax", "setting": "[4]; plasma, po, Male SD rat, single dose 50 mg/kg (p.o.)", "value": 0, "unit": "min"}, {"measurement": "time within which the concentration decreased to 1/100 of the initial concentration", "setting": "[4]; rat, intravenous 5 mg/kg", "value": "1 to 2", "unit": "h"}, {"measurement": "concentration detected in blood", "setting": "[4]; rat, intravenous 5 mg/kg, within 8 hours from the administration", "value": "very low concentration"}, {"measurement": "detection in blood", "setting": "[4]; rat, oral 50 mg/kg, after 30 minutes from the oral administration", "value": "not detected"}, {"measurement": "phosphorylation of the MAPK signaling pathway proteins (ERK1/2, JNK, p38)", "setting": "[5]; LPS 0, 0.5, 1 and 2 hours", "value": "did not inhibit phosphorylation"}, {"measurement": "MAPK signaling pathway / phosphorylation of ERK, JNK, p38", "setting": "[5]; LPS 100 ng/ml two hours", "value": "neither suppressed MAPK signaling pathway nor inhibited phosphorylation of the proteins"}, {"measurement": "expression of VEGF precursor", "setting": "[6]", "value": "reduced"}, {"measurement": "active oxygen rate in retina tissues (dihydroethidium)", "setting": "[7]", "value": "reduced active oxygen rate"}]}
